Results from article PMC6127322, “Novel Imidazole and Methoxybenzylamine Growth Inhibitors Affecting Salmonella Cell Envelope Integrity and its Persistence in Chickens” (Scientific Reports, 2018).
In brackets after ≈: the same amount, converted by molar mass. Like-named read-outs stand apart in the source and are kept apart here. Marks after values point to notes of the source that are not given here.

Tests used:
Salmonella Enteritidis = assay: Dose-response assay (MBC) on Salmonella serovars; format: cell-based; details: Salmonella enterica; serovar Enteritidis, M9 broth
sheep red blood cells = assay: Hemolytic activity; format: cell-based; details: sheep RBCs, 200 µM, 1 hr
Method: (§1) Briefly, 200 µl of 10% sheep or chicken RBC suspension was incubated with 1 µl of SMs (200 µM) for 1 hr at 37 °C in a 96-well plate. After incubation, the plate was centrifuged at 3700 X g for 5 min at 4 °C and then placed on ice for five min. One hundred microliters of the supernatant were transferred into a fresh 96-well plate, and the OD was measured at 540 nm. One percent DMSO and 0.1% Triton-100X were used as negative and positive controls, respectively. Percentage hemolysis was calculated as: [(OD540 SM − OD540 DMSO)/(OD540 1X triton − OD540 PBS)] × 100.

chicken red blood cells = assay: Hemolytic activity; format: cell-based; details: chicken RBCs, 200 µM, 1 hr
Method: as §1

[1] = system: biofilm embedded S. Typhimurium; assay: MBEC high-throughput assay on biofilm; format: cell-based, Salmonella enterica subsp. enterica serovar Typhimurium; details: 18 hrs incubation; for MBC on biofilm embedded Salmonella: M9 medium; for Cidal concentration on biofilm relative to planktonic MBC: compared to planktonic dose-response in parallel
Method: The antimicrobial efficacy of the four SMs was tested on biofilm embedded S. Typhimurium as previously described. Briefly, 150 µl of an overnight suspension of S. Typhimurium normalized to 0.05 OD600 in LB medium was transferred into each well of a sterile, non-treated, flat bottom 96-well plate. The plate was covered using the lid containing the pegs (Innovotech), sealed with parafilm, and incubated for 36 hrs at 37 °C. […] The plate was incubated for 18 hrs at 37 °C, 110 rpm in the dark. After incubation, the pegs were transferred to a new 96-well plate containing 200 µl of sterile water and sonicated for 60 min at room temperature (Aquasonic model 50HT, VWR). Removal of the biofilm was confirmed by crystal violet staining. The supernatant was ten-fold serial diluted, plated on an agar plate, and incubated at 37 °C for 36 hrs. The lowest SM concentration giving a complete clearance was considered as MBEC. […] In parallel to this experiment, a dose-response assay with planktonic cells was conducted as described above.

Salmonella Javiana = assay: Dose-response assay (MBC) on Salmonella serovars; format: cell-based, Salmonella enterica
[2] = system: nine Salmonella serotypes; assay: Activity spectrum and dose-response across Salmonella serotypes; format: cell-based, Salmonella enterica; details: for Effect against the nine Salmonella serotypes: 200 µM, M9 broth; for MBC: Salmonella, read-out: MBCs among the nine serotypes
Method: The 128 SMs inhibiting S. Typhimurium growth (20% or higher) were tested for their antimicrobial effect on nine different Salmonella serovars frequently implicated in foodborne gastroenteritis outbreaks. […] Both screens were performed at 200 µM as described in the primary screening. Growth conditions for each strain are described in Supplementary Table S2.
S. Typhimurium was challenged with a determined concentration of SM as described in the primary screen.

[3] = system: Kan^R S. Typhimurium in layer chickens; format: in vivo, chicken; details: for Reduction of Salmonella in the ceca: compared to the DMSO group; for Ceca positive for S. Typhimurium after enrichment / Livers positive for S. Typhimurium after enrichment / Spleens positive for S. Typhimurium after enrichment: n = 10 chickens per group
[4] = system: S. Typhimurium cell content; assay: Loss of 260 nm absorbing materials; format: cell-based, Salmonella enterica subsp. enterica serotype Typhimurium; details: 1 hr, lethal dose (5X MBC), compared to 1% DMSO control
Method: Figure S2. Estimation of the membrane permeability of Salmonella enterica subsp. enterica serotype Typhimurium strain JSG626 after small molecule (SM) treatment. (A) Crystal […]
Treatments were normalized based on 10 μg/ml of crystal violet solution (no uptake […]
different than the 1% DMSO control (P<0.01); n= 9. (B) Loss of 260 nm absorbing materials from S. Typhimurium cell content. 260 nm absorbing materials were measured […]
standard deviation; *: the amount of 260 nm absorbing material in supernatant was […]
Both experiments were performed as previously described (1).
(also on this page, place not known: updtae (%) (ng/µl) Crystal violet 260 nm absorbing material) […]

[5] = system: S. Typhimurium LT2 wild-type (WT) strain; assay: Dose-response assay (MIC and MBC determination) in M9 broth; format: cell-based, Salmonella enterica subsp. enterica serovar Typhimurium; details: 12 hrs at 37 °C, read-out: MBC (minimal bactericidal concentration)
Method: Typhimurium using high-throughput screening assay in a 96-well plate format. […] Plates were incubated in a Sunrise Tecan kinetic microplate reader for 12 hrs at 37 °C and the optical density (OD) was measured at 600 nm. The percentage of growth inhibition was calculated as: […]. Cultures from wells showing no turbidimetric increase were transferred onto a XLT4 agar plate. Plates were incubated at 37 °C for 36 hrs. […] S. Typhimurium was challenged with a determined concentration of SM as described in the primary screen.

S. Typhimurium = format: cell-based, Salmonella enterica subsp. enterica serovar Typhimurium; details: lethal dose (2X MBC) on solid medium or repeated exposure to sub-lethal dose (0.75X MBC) in liquid medium
[6] = system: Galleria mellonella larvae; assay: Toxicity on G. mellonella larvae; format: in vivo; details: uninfected larvae, single treatment with 12.5 µg of SM, 72 hrs
Method: Galleria mellonella larvae (fifth instar stage) were incubated for 12 hrs at 37 °C in the dark. After incubation, only larvae with a white creamy phenotype and a body weight ranging between 225 to 275 mg were selected for the study. […] Larval survival was monitored on 12 hrs intervals. Not treated larvae, larvae treated with the buffer mix, and larvae treated with 12.5 µg of chloramphenicol were used as controls.

[7] = system: Salmonella enterica subsp. enterica serotype Typhimurium; assay: Checkerboard assay, SM and antibiotic combinations; format: cell-based; details: for MBC: Salmonella enterica, TYPHIMURIUM, SM alone, read-out: SM MBCalone; for Reduction of cefeprime MBC / Reduction of meropenem MBC: sub-lethal concentration of SM
Method: The potentiation effect of several antibiotics, commonly used to control Salmonella, was studied in a checkerboard assay. […] The MBC of each antibiotic was determined in M9 medium prior the experiment using a dose-response assay, as described above. For potentiation studies, 100 μl of a S. […] The MBC of each antibiotic was determined as described in the dose-response assay. Bacteria challenged with SMs or antibiotics alone at the same concentrations were used to determine the antibiotic-SM combination effects. […] Further, the bacterial suspension was plated on an agar medium and incubated at 37 °C for 36 hrs. The antibiotic-SM combination effect was calculated based on the determination of the fractional bactericidal concentration (FBC) as previously described[66],[67].

Salmonella Heidelberg = assay: Dose-response assay (MBC) on Salmonella serovars; format: cell-based; details: Salmonella enterica; serovar Heidelberg, M9 broth
[8] = SM combined with nalidixic acid
[9] = compared to the DMSO-treated group

| SMILES | MBC (Salmonella Enteritidis) | Hemolytic activity (sheep red blood cells) | Hemolytic activity (chicken red blood cells) | MBC on biofilm embedded Salmonella [1] | Cidal concentration on biofilm relative to planktonic MBC [1] | MBC (Salmonella Javiana) | Effect against the nine Salmonella serotypes [2] | MBC [2] | Reduction of Salmonella in the ceca [3] | Ceca positive for S. Typhimurium after enrichment [3] | Livers positive for S. Typhimurium after enrichment [3] | Spleens positive for S. Typhimurium after enrichment [3] | Increase in 260 nm-absorbing material [4] | MBC ([5]; Salmonella enterica) | Resistance development of S. Typhimurium (S. Typhimurium) | Larva survival [6] | SM MBCcombined ([7]; SM combined with cefotaxime) | SM MBCcombined ([7]; SM combined with erythromycin) | MBC [7] | MBC (Salmonella Heidelberg) | other results |
| --- | --- | --- | --- | --- | --- | --- | --- | --- | --- | --- | --- | --- | --- | --- | --- | --- | --- | --- | --- | --- | --- |
| CC1CCC(C(C)C)C(OC(=O)Cn2c[n+](CC(=O)OC3CC(C)CCC3C(C)C)c3ccccc32)C1 (centres unmarked) [SM1] | 100 µM | > 50% | > 50% | 40 µM | 0.8 X MBC | 100 µM | cidal | 50 to 100 µM | did not show any reduction | 90% | 40% | 50% | 2.18 fold | 50 µM | no resistance was observed | 66% | 50 µM | 50 µM | 50 µM | 100 µM | Reduction of cefeprime MBC [7]: at least 5 fold; Reduction of meropenem MBC [7]: 5 fold |
| CCCCCCCCCCCCCCCC[n+]1ccn(CC#N)c1 [SM3] | 25 µM | below 18% | below 49% | 15 µM | 0.6 X MBC | 25 µM | cidal | 25 to 50 µM | did not show any reduction | 80% | 60% | 50% | 7.17 fold | 25 µM | no resistance was observed | 85% | 25^c μM | 25^c μM | 25 µM | 50 µM | MBC [5]: 25 µM; SM MBCcombined [7, 8]: 25^c μM; Reduction of cefeprime MBC [7]: at least 5 fold; Reduction of meropenem MBC [7]: 2.5 fold |
| CCOc1cc(/C=N/N=C(N)N)ccc1OCc1ccc(Cl)cc1 [SM5] | 50 µM (≈ 17.3 µg/mL) | lower than 1% | lower than 1% | 25 µM (≈ 8.67 µg/mL) | – | 50 µM (≈ 17.3 µg/mL) | – | 25 to 100 µM (≈ 8.67 to 34.7 µg/mL) | – | 70% | 40% | 30% | 5.25 fold | 25 µM (≈ 8.67 µg/mL) | no resistance was observed | 92% | 25^c μM | 25^c μM | 25 µM | 50 µM (≈ 17.3 µg/mL) | Reduction in Salmonella population inside the ceca ([3]; 200 µg of SM per day, oral, five days): approximately 2.8 log; Reduction of cecal colonization by Salmonella [3, 9]: 30%; Reduction of spleen colonization by Salmonella [3, 9]: 25%; MBC [5]: 25 µM (≈ 8.67 µg/mL); SM MBCcombined ([7]; SM combined with cefeprime): 25^c μM; SM MBCcombined ([7]; SM combined with ciprofloxacin at the concentration in the cell before): 20^b μM; SM MBCcombined ([7]; SM combined with meropenem): 25^c μM; SM MBCcombined [7, 8]: 25^c μM |
